{"source": "patent US7192906B2", "about": "“Substituted pyrazole derivatives, production process thereof, and herbicide compositions containing the derivatives” (SDS Biotech K.K., priority 2001, dated 2007)", "data": [{"test_system": "Digitaria adscendens", "assay": "Test Example 2 upland soil treatment", "assay_type": "in vivo", "details": "Table 5, upland soil treatment, index 0-5", "method": "(§1) A plastic pot of 130 cm^2 was filled with upland soil. Subsequently, weed seeds of Setaria viridis, Digitaria adscendens, Chenopodium album and Stellaria media, and crop seeds of soybean (Glycine max) and wheat (Triticum aestivum), were sowed and covered with soil of about 1 cm thickness. On the next day after the sowing, the wettable powder prepared in Formulation Example 1 was diluted with water such that the amount of the active ingredient became 1 kg per hectare, and then uniformly applied to the soil surface. On the 21st day after the application, observation and evaluation were carried out according to the aforesaid criteria.\n(§2) Herbicidal activity was evaluated based on the following criteria.\n(§3) • 5: herbicidal effect of not less than 90%, or phytotoxicity of 90% or more • 4: herbicidal effect of not less than 70% and less than 90%, or phytotoxicity of 70% or more and less than 90% • 3: herbicidal effect of not less than 50% and less than 70%, or phytotoxicity of 50% or more and less than 70% • 2: herbicidal effect of not less than 30% and less than 50%, or phytotoxicity of 30% or more and less than 50% • 1: herbicidal effect of not less than 10% and less than 30%, or phytotoxicity of 10% or more and less than 30% • 0: herbicidal effect of not less than 0% and less than 10%, or phytotoxicity of 0% or more and less than 10%", "values": [{"smiles": "CNC(=O)C(Cn1cc(C)c(-c2ccc(C#N)cc2)n1)=NOC", "note": "[Compound 51]", "Herbicidal activity DA: Digitaria adscendens": "4 (herbicidal effect of not less than 70% and less than 90%, or phytotoxicity of 70% or more and less than 90%)"}]}, {"test_system": "Stellaria media", "assay": "Test Example 2 upland soil treatment", "assay_type": "in vivo", "details": "Table 5, upland soil treatment, index 0-5", "method": "as §1, §2, §3", "values": [{"smiles": "CNC(=O)C(Cn1cc(C)c(-c2ccc(C#N)cc2)n1)=NOC", "note": "[Compound 51]", "Herbicidal activity SM: Stellaria media": "4 (herbicidal effect of not less than 70% and less than 90%, or phytotoxicity of 70% or more and less than 90%)"}]}, {"test_system": "Setaria viridis", "assay": "Test Example 2 upland soil treatment", "assay_type": "in vivo", "details": "Table 5, upland soil treatment, index 0-5", "method": "as §1, §2, §3", "values": [{"smiles": "CNC(=O)C(Cn1cc(C)c(-c2ccc(C#N)cc2)n1)=NOC", "note": "[Compound 51]", "Herbicidal activity SV: Setaria viridis": "4 (herbicidal effect of not less than 70% and less than 90%, or phytotoxicity of 70% or more and less than 90%)"}]}, {"test_system": "Chenopodium album", "assay": "Test Example 2 upland soil treatment", "assay_type": "in vivo", "details": "Table 5, upland soil treatment, index 0-5", "method": "as §1, §2, §3", "values": [{"smiles": "CNC(=O)C(Cn1cc(C)c(-c2ccc(C#N)cc2)n1)=NOC", "note": "[Compound 51]", "Herbicidal activity CA: Chenopodium album": "4 (herbicidal effect of not less than 70% and less than 90%, or phytotoxicity of 70% or more and less than 90%)"}]}, {"test_system": "Rice (Oryza sativa)", "assay": "Test Example 3 paddy field treatment, crop phytotoxicity", "assay_type": "in vivo", "details": "paddy field treatment, transplanted rice Koshihikari, wettable powder, active ingredient 1 kg per hectare, 21st day after the dropping, index 0-5", "method": "(§4) A plastic pot of 130 cm^2 was filled with paddy soil, and soil puddling was carried out to adjust the submerged depth to 4 cm. Subsequently, seeds of Echinochloa crusgalli, Monochoria vaginalis, Ammannia multiflora and Scirpus juncoides were sowed, and rice (Oryza sative, variety: Koshihikari) of two-leaf period was transplanted by 2 rice plants of 1 stub per pot at a depth of 3 cm. On the 10th day after the transplantation, the wettable powder prepared in Formulation Example 1 was diluted with water such that the amount of the active ingredient became 1 kg per hectare, and then dropped to diffuse on the water surface. On the 21st day after the dropping, observation and evaluation were carried out according to the aforesaid criteria.\nas §2, §3", "values": [{"smiles": "CNC(=O)C(Cn1cc(C)c(C2CCCCC2)n1)=NOC", "note": "[Compound 11]", "Herbicidal activity OS (phytotoxicity to rice)": "1 (herbicidal effect of not less than 10% and less than 30%, or phytotoxicity of 10% or more and less than 30%)"}, {"smiles": "CNC(=O)C(Cn1cc(C)c(-c2ccccc2F)n1)=NOC", "note": "[Compound 42]", "Herbicidal activity OS (phytotoxicity to rice)": "0 (herbicidal effect of not less than 0% and less than 10%, or phytotoxicity of 0% or more and less than 10%)"}]}, {"test_system": "Digitaria adscendens", "assay": "Test Example 1 upland field foliage treatment", "assay_type": "in vivo", "details": "Table 4, upland field foliage treatment, index 0-5", "method": "as §1, with “14th” for “next”, “plant leaf surfaces.” for “soil surface.”, “criteria described below.” for “aforesaid criteria.”\nas §2, §3", "values": [{"smiles": "CNC(=O)C(Cn1cc(C)c(C2CCCCC2)n1)=NOC", "note": "[Compound 11]", "Herbicidal activity DA: Digitaria adscendens": "5 (herbicidal effect of not less than 90%, or phytotoxicity of 90% or more)"}, {"smiles": "CNC(=O)C(Cn1cc(C)c(-c2ccccc2F)n1)=NOC", "note": "[Compound 42]", "Herbicidal activity DA: Digitaria adscendens": "5 (herbicidal effect of not less than 90%, or phytotoxicity of 90% or more)"}]}, {"test_system": "Stellaria media", "assay": "Test Example 1 upland field foliage treatment", "assay_type": "in vivo", "details": "Table 4, upland field foliage treatment, index 0-5", "method": "as §1, with “14th” for “next”, “plant leaf surfaces.” for “soil surface.”, “criteria described below.” for “aforesaid criteria.”\nas §2, §3", "values": [{"smiles": "CNC(=O)C(Cn1cc(C)c(C2CCCCC2)n1)=NOC", "note": "[Compound 11]", "Herbicidal activity SM: Stellaria media": "3 (herbicidal effect of not less than 50% and less than 70%, or phytotoxicity of 50% or more and less than 70%)"}, {"smiles": "CNC(=O)C(Cn1cc(C)c(-c2ccccc2F)n1)=NOC", "note": "[Compound 42]", "Herbicidal activity SM: Stellaria media": "5 (herbicidal effect of not less than 90%, or phytotoxicity of 90% or more)"}]}, {"test_system": "Setaria viridis", "assay": "Test Example 1 upland field foliage treatment", "assay_type": "in vivo", "details": "Table 4, upland field foliage treatment, index 0-5", "method": "as §1, with “14th” for “next”, “plant leaf surfaces.” for “soil surface.”, “criteria described below.” for “aforesaid criteria.”\nas §2, §3", "values": [{"smiles": "CNC(=O)C(Cn1cc(C)c(C2CCCCC2)n1)=NOC", "note": "[Compound 11]", "Herbicidal activity SV: Setaria viridis": "3 (herbicidal effect of not less than 50% and less than 70%, or phytotoxicity of 50% or more and less than 70%)"}, {"smiles": "CNC(=O)C(Cn1cc(C)c(-c2ccccc2F)n1)=NOC", "note": "[Compound 42]", "Herbicidal activity SV: Setaria viridis": "5 (herbicidal effect of not less than 90%, or phytotoxicity of 90% or more)"}]}, {"test_system": "Chenopodium album", "assay": "Test Example 1 upland field foliage treatment", "assay_type": "in vivo", "details": "Table 4, upland field foliage treatment, index 0-5", "method": "as §1, with “14th” for “next”, “plant leaf surfaces.” for “soil surface.”, “criteria described below.” for “aforesaid criteria.”\nas §2, §3", "values": [{"smiles": "CNC(=O)C(Cn1cc(C)c(C2CCCCC2)n1)=NOC", "note": "[Compound 11]", "Herbicidal activity CA: Chenopodium album": "5 (herbicidal effect of not less than 90%, or phytotoxicity of 90% or more)"}, {"smiles": "CNC(=O)C(Cn1cc(C)c(-c2ccccc2F)n1)=NOC", "note": "[Compound 42]", "Herbicidal activity CA: Chenopodium album": "5 (herbicidal effect of not less than 90%, or phytotoxicity of 90% or more)"}]}, {"test_system": "soybean (Glycine max)", "assay": "Test Example 1 upland field foliage treatment, crop phytotoxicity", "assay_type": "in vivo", "details": "Table 4, upland field foliage treatment, index 0-5", "method": "as §1, with “14th” for “next”, “plant leaf surfaces.” for “soil surface.”, “criteria described below.” for “aforesaid criteria.”\nas §2, §3", "values": [{"smiles": "CNC(=O)C(Cn1cc(C)c(C2CCCCC2)n1)=NOC", "note": "[Compound 11]", "Herbicidal activity (phytotoxicity) GM: Soybean (Glycine max)": "0 (herbicidal effect of not less than 0% and less than 10%, or phytotoxicity of 0% or more and less than 10%)"}, {"smiles": "CNC(=O)C(Cn1cc(C)c(-c2ccccc2F)n1)=NOC", "note": "[Compound 42]", "Herbicidal activity (phytotoxicity) GM: Soybean (Glycine max)": "0 (herbicidal effect of not less than 0% and less than 10%, or phytotoxicity of 0% or more and less than 10%)"}]}, {"test_system": "wheat (Triticum aestivum)", "assay": "Test Example 1 upland field foliage treatment, crop phytotoxicity", "assay_type": "in vivo", "details": "Table 4, upland field foliage treatment, index 0-5", "method": "as §1, with “14th” for “next”, “plant leaf surfaces.” for “soil surface.”, “criteria described below.” for “aforesaid criteria.”\nas §2, §3", "values": [{"smiles": "CNC(=O)C(Cn1cc(C)c(C2CCCCC2)n1)=NOC", "note": "[Compound 11]", "Herbicidal activity (phytotoxicity) TA: Wheat (Triticum aestivum)": "0 (herbicidal effect of not less than 0% and less than 10%, or phytotoxicity of 0% or more and less than 10%)"}, {"smiles": "CNC(=O)C(Cn1cc(C)c(-c2ccccc2F)n1)=NOC", "note": "[Compound 42]", "Herbicidal activity (phytotoxicity) TA: Wheat (Triticum aestivum)": "0 (herbicidal effect of not less than 0% and less than 10%, or phytotoxicity of 0% or more and less than 10%)"}]}, {"test_system": "soybean (Glycine max)", "assay": "Test Example 2 upland soil treatment, crop phytotoxicity", "assay_type": "in vivo", "details": "Table 5, upland soil treatment, index 0-5", "method": "as §1, §2, §3", "values": [{"smiles": "CNC(=O)C(Cn1cc(C)c(-c2ccc(C#N)cc2)n1)=NOC", "note": "[Compound 51]", "Herbicidal activity (phytotoxicity) GM: Soybean (Glycine max)": "0 (herbicidal effect of not less than 0% and less than 10%, or phytotoxicity of 0% or more and less than 10%)"}]}, {"test_system": "wheat (Triticum aestivum)", "assay": "Test Example 2 upland soil treatment, crop phytotoxicity", "assay_type": "in vivo", "details": "Table 5, upland soil treatment, index 0-5", "method": "as §1, §2, §3", "values": [{"smiles": "CNC(=O)C(Cn1cc(C)c(-c2ccc(C#N)cc2)n1)=NOC", "note": "[Compound 51]", "Herbicidal activity (phytotoxicity) TA: Wheat (Triticum aestivum)": "0 (herbicidal effect of not less than 0% and less than 10%, or phytotoxicity of 0% or more and less than 10%)"}]}, {"test_system": "Ammannia multiflora", "assay": "Test Example 3 paddy field treatment", "assay_type": "in vivo", "details": "paddy field treatment, wettable powder, active ingredient 1 kg per hectare, 21st day after the dropping, index 0-5", "method": "as §4, §2, §3", "values": [{"smiles": "CNC(=O)C(Cn1cc(C)c(C2CCCCC2)n1)=NOC", "note": "[Compound 11]", "Herbicidal activity AM": "5 (herbicidal effect of not less than 90%, or phytotoxicity of 90% or more)"}, {"smiles": "CNC(=O)C(Cn1cc(C)c(-c2ccccc2F)n1)=NOC", "note": "[Compound 42]", "Herbicidal activity AM": "5 (herbicidal effect of not less than 90%, or phytotoxicity of 90% or more)"}]}, {"test_system": "Echinochloa crusgalli", "assay": "Test Example 3 paddy field treatment", "assay_type": "in vivo", "details": "paddy field treatment, wettable powder, active ingredient 1 kg per hectare, 21st day after the dropping, index 0-5", "method": "as §4, §2, §3", "values": [{"smiles": "CNC(=O)C(Cn1cc(C)c(C2CCCCC2)n1)=NOC", "note": "[Compound 11]", "Herbicidal activity EC": "5 (herbicidal effect of not less than 90%, or phytotoxicity of 90% or more)"}, {"smiles": "CNC(=O)C(Cn1cc(C)c(-c2ccccc2F)n1)=NOC", "note": "[Compound 42]", "Herbicidal activity EC": "5 (herbicidal effect of not less than 90%, or phytotoxicity of 90% or more)"}]}, {"test_system": "Scirpus juncoides", "assay": "Test Example 3 paddy field treatment", "assay_type": "in vivo", "details": "paddy field treatment, wettable powder, active ingredient 1 kg per hectare, 21st day after the dropping, index 0-5", "method": "as §4, §2, §3", "values": [{"smiles": "CNC(=O)C(Cn1cc(C)c(C2CCCCC2)n1)=NOC", "note": "[Compound 11]", "Herbicidal activity SJ": "5 (herbicidal effect of not less than 90%, or phytotoxicity of 90% or more)"}, {"smiles": "CNC(=O)C(Cn1cc(C)c(-c2ccccc2F)n1)=NOC", "note": "[Compound 42]", "Herbicidal activity SJ": "5 (herbicidal effect of not less than 90%, or phytotoxicity of 90% or more)"}]}, {"test_system": "Monochoria vaginalis", "assay": "Test Example 3 paddy field treatment", "assay_type": "in vivo", "details": "paddy field treatment, wettable powder, active ingredient 1 kg per hectare, 21st day after the dropping, index 0-5", "method": "as §4, §2, §3", "values": [{"smiles": "CNC(=O)C(Cn1cc(C)c(C2CCCCC2)n1)=NOC", "note": "[Compound 11]", "Herbicidal activity MV": "5 (herbicidal effect of not less than 90%, or phytotoxicity of 90% or more)"}, {"smiles": "CNC(=O)C(Cn1cc(C)c(-c2ccccc2F)n1)=NOC", "note": "[Compound 42]", "Herbicidal activity MV": "5 (herbicidal effect of not less than 90%, or phytotoxicity of 90% or more)"}]}]}
